Assay results: article PMC5795001, “The activity of the C4-dicarboxylic acid chemoreceptor of Pseudomonas aeruginosa is controlled by chemoattractants and antagonists” (Scientific Reports, 2018)
“Also recorded” adds a separate entry of the source.

Legend:
[1] = tested on: Pseudomonas aeruginosa PAO1 (wt and PA2652 mutant); test: Growth experiments with ligands as sole carbon source; assay type: cell-based; details: M9 minimal medium, 10 mM carbon source
Description: To evaluate the physiological relevance of the ligands identified, we first addressed the question of whether they could support bacterial growth as sole carbon source. To this end, we conducted growth experiments of the wild type (wt) strain and a mutant defective in PA2652 in minimal medium supplemented with the different ligands as sole carbon sources.
Bacterial strains used in this study are listed in Supplementary Table S3. Pseudomonas aeruginosa PAO1 and its derivative strains were routinely grown at 37 °C in Luria Broth (LB; 5 g yeast extract l^−1, 10 g Bacto tryptone l^−1 and 5 g NaCl l^−1) or M9 medium supplemented with 1 mM MgSO4, 6 mg l^−1 Fe-citrate, trace elements[81] and 15 mM glucose as carbon source. For growth experiments to assess the capacity of PA2652-LBD ligands to support growth a sole C-source, PAO1 cells were pre-cultured overnight in M9 medium supplemented with 10 mM glucose and washed twice with M9 medium salts, prior to the inoculation of M9 medium containing10 mM of the different carbon sources. When necessary, the pH of the medium was adjusted to 7.0 prior to inoculation. Bacterial growth over the time was monitored using Bioscreen Microbiological Growth Analyser (Oy Growth Curves Ab Ltd, Helsinki, Finland). Escherichia coli strains were grown at 37 °C in LB. Escherichia coli DH5α was used as a host for gene cloning. When appropriate, antibiotics were used at the following final concentrations (in µg ml^−1): kanamycin, 25 (E. coli strains) and 100 (Pseudomonas strains); tetracycline, 40.

PA2652-LBD = biological target: T1, PA2652-LBD (Pseudomonas aeruginosa, UniProt Q9I0I6); test: Sedimentation velocity analytical ultracentrifugation; parameters: species or system Pseudomonas aeruginosa PAO1; details: 1 mM L-malic acid, protein 5-20 µM, 7 °C, PIPES buffer
T1 construct: The DNA fragment encoding the LBD of PA2652 (Lys^34–Thr^205) was amplified; His-tag (vector-encoded by pET28b(+) via NdeI site); made in house; host or cells: Escherichia coli BL21 (DE3)
Method: To address this issue, PA2652-LBD was analysed by sedimentation velocity analytical ultracentrifugation (AUC). Initial experiments were conducted using concentrations of ligand-free protein ranging from 5 to 20 µM. […] The molecular weight extracted from the sedimentation coefficient and the shape was of 41 kDa. Considering that the sequence-derived mass of the PA2652-LBD monomer is 21.5 kDa, the observed species is clearly a protein dimer. Since no shift to higher sedimentation coefficients was measured with increasing protein concentrations (data not shown), the dimer species can be considered stable over the protein concentration range analysed. The above experiments were also performed in the presence of saturating concentrations of L-malic acid.
Experiments were performed on a Beckman Coulter Optima XL-A analytical ultracentrifuge (Beckman-Coulter, Palo Alto, CA, USA) equipped with UV-visible absorbance detection system, using an An50Ti 8-hole rotor and 12 mm path-length charcoal-filled epon double-sector centrepieces. […] Light at a wavelength of 234 nm was recorded in the absorbance optics mode. […] Buffer density (ρ = 1.0015 g/mL) and viscosity (η = 0.01449 Poise) at 7 °C were calculated from the buffer composition using SEDNTERP software. […]

[2] = tested on: Pseudomonas aeruginosa PAO1; test: Quantitative capillary chemotaxis assay, wild type; assay type: cell-based
Method: Secondly, we assessed the capacity of the ligands identified to induce chemotaxis. To this end, we carried out quantitative capillary chemotaxis assays using the wt strain and PA2652 ligands at concentrations ranging from 10 µM to 100 mM.
(§1) Overnight cultures of P. aeruginosa strains were diluted to an OD660 of 0.05 in MS medium (30 mM Na2HPO4, 20 mM KH2PO4, 25 mM NH4NO3, 1 mM MgSO4) supplemented with 6 mg l^−1 Fe-citrate, trace elements[81] and 15 mM glucose as carbon source, and grown at 37 °C with orbital shaking (200 rpm). At an OD660 of 0.4 ([…]) cultures were centrifuged at 1,700 × g for 5 min and the resulting pellet was washed twice with chemotaxis buffer (50 mM potassium phosphate, […], 0.05% (v/v) glycerol, pH 7.0). Subsequently, the cells were resuspended in the same buffer, adjusted to an OD660 of 0.1 and 230 µl aliquots of the bacterial cultures were placed into 96-well plates. For the quantitative assays, one-microliter capillary tubes (Microcaps, Drummond Scientific, Ref. P1424) were heat-sealed at one end and filled with either the chemotaxis buffer (negative control) or chemotaxis buffer containing the chemoeffectors to test. The capillaries were immersed into the bacterial suspensions at its open end. After 30 min at room temperature, capillaries were removed from the bacterial suspensions, rinsed with sterile water and the content expelled into 1 ml of M9 medium salts. Serial dilutions were plated onto M9 minimal medium (containing the appropriate antibiotics) supplemented with 15 mM glucose as carbon source. The number of colony forming units was determined after overnight incubation. In all cases, data were corrected with the number of cells that swam into buffer containing capillaries.

[3] = tested on: Pseudomonas aeruginosa PAO1 cheA1 mutant; test: Capillary chemotaxis assay, cheA1 mutant; assay type: cell-based; details: 10 mM L-malic acid
Method: A recent bioinformatic study has predicted that PA2652 signals through the che pathway. To verify this prediction we conducted chemotaxis assays to L-malic acid using the wt strain as well as mutants in cheA1 and cheA2, encoding respectively the histidine kinases of the che and che2 pathways.
as §1, with “After 30 min at room temperature, capillaries were removed from the bacterial suspensions, rinsed with sterile water and the content expelled into 1 ml of M9 medium salts. Serial dilutions were plated onto M9 minimal medium (containing the appropriate antibiotics) supplemented with 15 mM glucose as carbon source.” left out, “In all cases, data were corrected with the number of cells that swam into buffer containing capillaries.” left out

T1 sequence (Q9I0I6 34-205): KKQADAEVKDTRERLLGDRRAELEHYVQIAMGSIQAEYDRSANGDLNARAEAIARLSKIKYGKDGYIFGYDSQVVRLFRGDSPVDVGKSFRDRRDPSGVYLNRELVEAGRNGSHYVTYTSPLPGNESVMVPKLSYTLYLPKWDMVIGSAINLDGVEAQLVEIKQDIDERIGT

With `O=C(O)C[C@H](O)C(=O)O` [L-malic acid] the “Ability to support bacterial growth as sole carbon source” value [1] was “able to efficiently sustain growth”, the “Effect of ligand binding on oligomerization state of PA2652-LBD” value (PA2652-LBD) was “does not have any significant effects on the oligomerization state” and the “Role of PA2652 ligand (chemoattractant or antagonist)” value ([2]; authors' classification from chemotaxis results) was “chemoattractants”. For the same compound, the Chemotactic response ([2]; wt PAO1, ligands at 10 µM to 100 mM) was “strong chemotaxis responses” and the “Chemotaxis in cheA1 mutant” value [3] was “abolished chemotaxis; also recorded: no response was observed”.
